Reference: ChEMBL document CHEMBL3045401, “(Naphthalen-1-yloxy)-acetic acid benzylidene/(1-phenyl-ethylidene)-hydrazide derivatives: synthesis, antimicrobial evaluation, and QSAR studies” (Med Chem Res, 2012)
In brackets after ≈: the same amount, converted by molar mass.

Key:
Human alphaherpesvirus 3 [1] = assay: Antiviral activity against thymidine kinase-deficient Human herpesvirus 3 infected in HEL cells assessed as inhibition of viral plaque formation; format: functional, organism-based; conditions: Human alphaherpesvirus 3, HEL
Human betaherpesvirus 5 [2] = assay: Antiviral activity against Human herpesvirus 5 Davis infected human HEL cells assessed as reduction in the virus plaque formation; format: functional, organism-based; conditions: Human betaherpesvirus 5, Davis
Bacillus subtilis = assay: Antimicrobial activity against Bacillus subtilis after 24 hr by serial dilution method; format: functional
Human betaherpesvirus 5 [3] = assay: Antiviral activity against Human herpesvirus 5 strain AD169 infected human HEL cells assessed as reduction in the virus plaque formation; format: functional, organism-based; conditions: Human betaherpesvirus 5, AD169, HEL
Human alphaherpesvirus 3 [4] = assay: Antiviral activity against thymidine kinase-positive Human herpesvirus 3 infected in HEL cells assessed as inhibition of viral plaque formation; format: functional, organism-based; conditions: Human alphaherpesvirus 3, HEL
Aspergillus niger = assay: Antimicrobial activity against Aspergillus niger after 7 days by serial dilution method; format: functional
Candida albicans = assay: Antimicrobial activity against Candida albicans after 2 days by serial dilution method; format: functional
Escherichia coli = assay: Antimicrobial activity against Escherichia coli after 24 hr by serial dilution method; format: functional
[5] = tested on: Human immunodeficiency virus 1; assay: Antiviral activity against Human immunodeficiency virus 1 IIIB infected human MT4 cells assessed as inhibition of virus-induced cytopathic effect after 4 days by MTT assay; format: functional, organism-based; conditions: MT4, 96 h
[6] = Cytotoxicity against HEL; format: cell-based; conditions: human, HEL cells
[7] = Cytotoxicity against HEL assessed as minimum concentration required to cause morphological changes; format: cell-based; conditions: human, HEL cells
[8] = tested on: Human immunodeficiency virus 2; assay: Antiviral activity against Human immunodeficiency virus type 2 (ISOLATE ROD) infected human MT4 cells assessed as inhibition of virus-induced cytopathic effect after 4 days by MTT assay; format: functional, organism-based; conditions: Human immunodeficiency virus 2, ISOLATE ROD, MT4, 96 h
[9] = Octanol-water partition coefficient, log P of the compound; format: physicochemical
Staphylococcus aureus = assay: Antimicrobial activity against Staphylococcus aureus after 24 hr by serial dilution method; format: functional
[10] = Cytotoxicity against Homo sapiens (human) MT4 cells after 4 days by MTT assay; format: cell-based

Row | EC50 (Human alphaherpesvirus 3 [1]) | EC50 (Human betaherpesvirus 5 [2]) | EC50 (Human betaherpesvirus 5 [3]) | EC50 (Human alphaherpesvirus 3 [4]) | logP [9] | Structure (SMILES) | -logMIC (Bacillus subtilis) | -logMIC (Aspergillus niger) | -logMIC (Candida albicans) | -logMIC (Escherichia coli) | EC50 [5] | CC50 [6] | MCC [7] | EC50 [8] | -logMIC (Staphylococcus aureus) | CC50 at 96 h [10]
1 | > 20 mg/L | > 20 mg/L | > 20 mg/L | > 20 mg/L | 4.43 | O=C(COc1cccc2ccccc12)N/N=C/C=C/c1ccccc1 | 1.12 | 0.82 | 1.72 | 1.12 | > 62.7 mg/L | 100 mg/L (≈ 303 µM) | 100 µg/mL | > 62.7 mg/L | 1.12 | 82.7 mg/L (≈ 250 µM)
2 | > 0.8 mg/L | > 0.8 mg/L | > 0.8 mg/L | > 0.8 mg/L | 4.74 | O=C(COc1cccc2ccccc12)N/N=C/c1c(O)ccc2ccccc12 | 0.57 | 0.87 | 0.87 | 0.87 | > 2.12 mg/L | 1.94 mg/L (≈ 5.24 µM) | 4 µg/mL | > 2.12 mg/L | 0.87 | 2.12 mg/L (≈ 5.72 µM)
3 | > 20 mg/L | > 20 mg/L | > 20 mg/L | > 20 mg/L | 3.79 | O=C(COc1cccc2ccccc12)N/N=C/c1c[nH]c2ccccc12 | 1.14 | 0.84 | 0.84 | 0.84 | > 51.5 mg/L | > 100 mg/L | 100 µg/mL | > 51.5 mg/L | 0.84 | 51.5 mg/L (≈ 150 µM)
4 | > 20 mg/L | > 4 mg/L | > 4 mg/L | > 20 mg/L | 3.65 | C/C(=N\NC(=O)COc1cccc2ccccc12)c1ccccc1 | 0.82 | 0.82 | 0.82 | 0.82 | > 105 mg/L | 20 mg/L (≈ 62.8 µM) | 20 µg/mL | > 105 mg/L | 0.82 | 105 mg/L (≈ 328 µM)
5 | 3.24 mg/L (≈ 9.18 µM) | 4 mg/L (≈ 11.3 µM) | > 0.8 mg/L | 2.5 mg/L (≈ 7.09 µM) | 4.17 | C/C(=N\NC(=O)COc1cccc2ccccc12)c1ccc(Cl)cc1 | 1.15 | 0.85 | 1.75 | 1.15 | > 4.07 mg/L | 7.1 mg/L (≈ 20.1 µM) | ≥ 4 µg/mL | > 4.07 mg/L | 1.45 | 4.07 mg/L (≈ 11.5 µM)
6 | > 4 mg/L | > 4 mg/L | > 4 mg/L | > 4 mg/L | 4.44 | C/C(=N\NC(=O)COc1cccc2ccccc12)c1ccccc1Br | 1.2 | 1.5 | 1.5 | 1.2 | > 79.8 mg/L | 16.2 mg/L (≈ 40.8 µM) | 20 µg/mL | > 79.8 mg/L | 1.2 | 79.8 mg/L (≈ 201 µM)
7 | > 4 mg/L | > 4 mg/L | > 4 mg/L | > 4 mg/L | 3.61 | C/C(=N\NC(=O)COc1cccc2ccccc12)c1ccc(Br)cc1 | 0.9 | 0.6 | 0.6 | 0.6 | > 77.6 mg/L | 15.3 mg/L (≈ 38.5 µM) | 20 µg/mL | > 77.6 mg/L | 0.6 | 77.6 mg/L (≈ 195 µM)
8 | > 4 mg/L | > 4 mg/L | > 4 mg/L | > 4 mg/L | 3.61 | C/C(=N\NC(=O)COc1cccc2ccccc12)c1ccc(C#N)cc1Br | 1.23 | 1.53 | 2.13 | 1.53 | > 12.1 mg/L | 12.7 mg/L (≈ 30.1 µM) | 20 µg/mL | > 12.1 mg/L | 1.23 | 12.1 mg/L (≈ 28.7 µM)
9 | > 4 mg/L | > 4 mg/L | > 4 mg/L | > 4 mg/L | 3.37 | C/C(=N\NC(=O)COc1cccc2ccccc12)c1cccc([N+](=O)[O-])c1 | 1.16 | 1.46 | 1.76 | 1.46 | > 12.1 mg/L | 10.5 mg/L (≈ 28.9 µM) | 20 µg/mL | > 12.1 mg/L | 1.76 | 12.1 mg/L (≈ 33.2 µM)
10 | > 20 mg/L | > 20 mg/L | > 20 mg/L | > 20 mg/L | 3.37 | C/C(=N\NC(=O)COc1cccc2ccccc12)c1ccc([N+](=O)[O-])cc1 | 1.16 | 0.86 | 1.46 | 1.46 | > 89.3 mg/L | > 100 mg/L | 100 µg/mL | > 89.3 mg/L | 1.16 | 89.3 mg/L (≈ 246 µM)
11 | 7.9 mg/L (≈ 23.6 µM) | > 4 mg/L | > 4 mg/L | 7 mg/L (≈ 20.9 µM) | 3.08 | C/C(=N\NC(=O)COc1cccc2ccccc12)c1ccccc1O | 0.82 | 0.82 | 0.82 | 1.43 | > 11.2 mg/L | 4 mg/L (≈ 12 µM) | 20 µg/mL | > 11.2 mg/L | 1.13 | 11.2 mg/L (≈ 33.6 µM)
12 | > 0.8 mg/L | > 4 mg/L | > 4 mg/L | > 4 mg/L | 4.44 | C/C(=N\NC(=O)COc1cccc2ccccc12)c1ccc(O)cc1 | 1.13 | 1.43 | 1.43 | 1.43 | > 68.8 mg/L | 11.1 mg/L (≈ 33.2 µM) | 20 µg/mL | > 68.8 mg/L | 1.13 | 68.8 mg/L (≈ 206 µM)
13 | > 100 mg/L | > 100 mg/L | > 100 mg/L | 58.5 mg/L (≈ 167 µM) | 4.31 | C/C(=N\NC(=O)COc1cccc2ccccc12)c1ccc(O)cc1O | 1.15 | 1.45 | 1.45 | 1.75 | > 59.9 mg/L | 74.8 mg/L (≈ 213 µM) | > 100 µg/mL | > 59.9 mg/L | 1.15 | 59.9 mg/L (≈ 171 µM)
